Results: patent US20150094310A1, “CRHR1 ANTAGONISTS FOR USE IN THE TREATMENT OF PATIENTS HAVING CRH OVERACTIVITY” (HOLSBOERMASCHMEYER NEUROCHEMIE GMBH, priority 2012, published 2015)

How the values were obtained:
[1] = system: mice overexpressing CRH in the forebrain; settings: cited from earlier work
CRH-COE^CNS mice = assay: REMS activity by EEG/EMG recording in CRH-COE^CNS mice and control littermates; settings: for REMS activity: treatment days vs baseline
Experimental: (§1) Experiments were conducted with two different mouse lines of excessive central CRH secretion and their respective control littermates (CL). Mice of the CRH-COE^CNS line are characterised by CRH-overexpression within the whole CNS, whereas mice of the Cor26 CRH line display a CRH-overexpression specific to CRH-ergic neurons of the CNS. Three different CRHR1 antagonists were tested. […] In all cases, animals were left to recover from EEG/EMG-electrode implantation for two weeks, after which two days of baseline recording were initiated. Treatment with CRH-R1 antagonist or respective vehicle control commenced thereafter for five consecutive days. Antagonists were applied through the drinking water at a daily dose of 50 mg/kg body weight. EEG and EMG recordings were manually scored as wake, non-REMS (NREMS), and REMS in four second epochs by an experienced evaluator.

Cor26 CRH mice = assay: REMS levels by EEG/EMG recording in Cor26 CRH mice and control littermates; settings: for REMS activity / REMS levels: CRH-overexpressing Cor26 CRH mice, 50 mg/kg/d via drinking water
Experimental: as §1

Structure (SMILES) | REM enhancement [1] | REMS activity in control littermates (CRH-COE^CNS mice; CL (control) mice, 50 mg/kg/d via drinking water) | treatment day of strongest suppression of REMS activity (CRH-COE^CNS mice; CRH-COE^CNS mice, 50 mg/kg/d) | REMS activity (CRH-COE^CNS mice; CRH-COE^CNS mice, 50 mg/kg/d via drinking water, 50 mg/kg/day) | REMS activity (CRH-COE^CNS mice; CRH-COE^CNS mice, 50 mg/kg/d via drinking water, listed as DMP696, 50 mg/kg/day) | REMS activity / REMS levels (Cor26 CRH mice; 50 mg/kg/day) | REMS activity / REMS levels (Cor26 CRH mice; listed as CP-316311, 50 mg/kg/day) | REMS levels, area under the curve (AUC) within the light period (Cor26 CRH mice; Cor26 CRH mice, baseline vs treatment day three, P=0.006)
COCC(COC)Nc1nc(C)nc2c(-c3ccc(Cl)cc3Cl)c(C)nn12 [DMP-696] | could reverse the REM enhancement | only a mild suppression of REMS | treatment day three | significant decrease in REMS activity | suppressed |  |  | 
CCC(CC)Oc1cc(C)nc(Oc2c(C)cc(C)cc2C)c1C [CP-316,311] |  |  |  |  |  | apparently seemed weak | suppressed | significant decrease
